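The compound was tested at five concentrations on cells cultured in 96-well plates, with a 48-hour exposure period. TGI: total growth inhibition.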
Tests used:
Assay in all cases: DTP human tumour cell line panel, 48 h
UACC-257 melanoma = system: UACC-257 melanoma
MDA-MB-231 breast = system: MDA-MB-231 breast
TK-10 renal = system: TK-10 renal
SK-MEL-2 melanoma = system: SK-MEL-2 melanoma
NCI/ADR-RES ovarian = system: NCI/ADR-RES ovarian
BT-549 breast = system: BT-549 breast
HL-60(TB) leukemia = system: HL-60(TB) leukemia
SNB-19 CNS = system: SNB-19 CNS
SF-539 CNS = system: SF-539 CNS
DU-145 prostate = system: DU-145 prostate
ACHN renal = system: ACHN renal
A498 renal = system: A498 renal
MOLT-4 leukemia = system: MOLT-4 leukemia
SW-620 colon = system: SW-620 colon
NCI-H226 lung = system: NCI-H226 lung
M14 melanoma = system: M14 melanoma
NCI-H522 lung = system: NCI-H522 lung
OVCAR-4 ovarian = system: OVCAR-4 ovarian
HS 578T breast = system: HS 578T breast
HCT-116 colon = system: HCT-116 colon
MCF7 breast = system: MCF7 breast
EKVX NSCLC = system: EKVX NSCLC
786-0 renal = system: 786-0 renal
U251 CNS = system: U251 CNS
RXF 393 renal = system: RXF 393 renal
A549 NSCLC = system: A549 NSCLC
SNB-75 CNS = system: SNB-75 CNS
KM12 colon = system: KM12 colon
IGROV1 ovarian = system: IGROV1 ovarian
PC-3 prostate = system: PC-3 prostate
K-562 leukemia = system: K-562 leukemia
HT29 colon = system: HT29 colon
OVCAR-8 ovarian = system: OVCAR-8 ovarian
CAKI-1 renal = system: CAKI-1 renal
OVCAR-5 ovarian = system: OVCAR-5 ovarian
NCI-H460 lung = system: NCI-H460 lung
HOP-62 NSCLC = system: HOP-62 NSCLC
SK-OV-3 ovarian = system: SK-OV-3 ovarian
SF-295 CNS = system: SF-295 CNS
HCT-15 colon = system: HCT-15 colon
SK-MEL-28 melanoma = system: SK-MEL-28 melanoma
SN12C renal = system: SN12C renal
CCRF-CEM leukemia = system: CCRF-CEM leukemia
HOP-92 NSCLC = system: HOP-92 NSCLC
OVCAR-3 ovarian = system: OVCAR-3 ovarian
SK-MEL-5 melanoma = system: SK-MEL-5 melanoma
COLO 205 colon = system: COLO 205 colon
NCI-H23 lung = system: NCI-H23 lung
RPMI-8226 leukemia = system: RPMI-8226 leukemia
SF-268 CNS = system: SF-268 CNS
UO-31 renal = system: UO-31 renal
T-47D breast = system: T-47D breast
UACC-62 melanoma = system: UACC-62 melanoma
HCC-2998 colon = system: HCC-2998 colon
MDA-MB-435 = system: MDA-MB-435
MALME-3M melanoma = system: MALME-3M melanoma
LOX IMVI melanoma = system: LOX IMVI melanoma

`CSc1nc(-c2ccccc2)c(C#N)c(=O)[nH]1` showed a TGI (UACC-257 melanoma) greater than 100 µM, a TGI (MDA-MB-231 breast) greater than 100 µM and a TGI (TK-10 renal) greater than 100 µM. It also gave a TGI (SK-MEL-2 melanoma) greater than 100 µM, a TGI (NCI/ADR-RES ovarian) greater than 100 µM and a TGI (BT-549 breast) greater than 100 µM. It also gave a TGI (HL-60(TB) leukemia) greater than 100 µM, a TGI (SNB-19 CNS) greater than 100 µM and a TGI (SF-539 CNS) greater than 100 µM. It also gave a TGI (DU-145 prostate) greater than 100 µM, a TGI (ACHN renal) greater than 100 µM and a TGI (A498 renal) greater than 100 µM. The TGI (MOLT-4 leukemia) was greater than 100 µM, the TGI (SW-620 colon) was greater than 100 µM and the TGI (NCI-H226 lung) was greater than 100 µM. It also gave a TGI (M14 melanoma) greater than 100 µM, a TGI (NCI-H522 lung) greater than 100 µM and a TGI (OVCAR-4 ovarian) greater than 100 µM. The TGI (HS 578T breast) was greater than 100 µM, the TGI (HCT-116 colon) was greater than 100 µM and the TGI (MCF7 breast) was greater than 100 µM. For the same molecule, the TGI (EKVX NSCLC) was greater than 100 µM, the TGI (786-0 renal) was greater than 100 µM and the TGI (U251 CNS) was greater than 100 µM. It also gave a TGI (RXF 393 renal) greater than 100 µM, a TGI (A549 NSCLC) greater than 100 µM and a TGI (SNB-75 CNS) greater than 100 µM. For the same molecule, the TGI (KM12 colon) was greater than 100 µM, the TGI (IGROV1 ovarian) was greater than 100 µM and the TGI (PC-3 prostate) was greater than 100 µM. The TGI (K-562 leukemia) was greater than 100 µM, the TGI (HT29 colon) was greater than 100 µM and the TGI (OVCAR-8 ovarian) was greater than 100 µM. The TGI (CAKI-1 renal) was greater than 100 µM, the TGI (OVCAR-5 ovarian) was greater than 100 µM and the TGI (NCI-H460 lung) was greater than 100 µM. It also gave a TGI (HOP-62 NSCLC) greater than 100 µM, a TGI (SK-OV-3 ovarian) greater than 100 µM and a TGI (SF-295 CNS) greater than 100 µM. The TGI (HCT-15 colon) was greater than 100 µM, the TGI (SK-MEL-28 melanoma) was greater than 100 µM and the TGI (SN12C renal) was greater than 100 µM. For the same molecule, the TGI (CCRF-CEM leukemia) was greater than 100 µM, the TGI (HOP-92 NSCLC) was greater than 100 µM and the TGI (OVCAR-3 ovarian) was greater than 100 µM. The TGI (SK-MEL-5 melanoma) was greater than 100 µM, the TGI (COLO 205 colon) was greater than 100 µM and the TGI (NCI-H23 lung) was greater than 100 µM. It also gave a TGI (RPMI-8226 leukemia) greater than 100 µM, a TGI (SF-268 CNS) greater than 100 µM and a TGI (UO-31 renal) greater than 100 µM. It also gave a TGI (T-47D breast) greater than 100 µM, a TGI (UACC-62 melanoma) greater than 100 µM and a TGI (HCC-2998 colon) greater than 100 µM. For the same molecule, the TGI (MDA-MB-435) was greater than 100 µM.
In the case of `CS(=O)(=O)Nc1ccc(Nc2cc[nH]c3ccc4nccc4c23)cc1`, the TGI (UACC-257 melanoma) is reported as 31.5 µM, the TGI (MDA-MB-231 breast) is reported as 21.6 µM and the TGI (TK-10 renal) is reported as 82.1 µM. The TGI (MALME-3M melanoma) was 18.4 µM, the TGI (SK-MEL-2 melanoma) was 23.9 µM and the TGI (NCI/ADR-RES ovarian) was greater than 100 µM. The TGI (BT-549 breast) was 40 µM, the TGI (HL-60(TB) leukemia) was 42 µM and the TGI (SNB-19 CNS) was 26.3 µM. For the same molecule, the TGI (DU-145 prostate) was 22.2 µM, the TGI (ACHN renal) was 65.3 µM and the TGI (A498 renal) was 34.2 µM. It also gave a TGI (MOLT-4 leukemia) of 7.78 µM, a TGI (SW-620 colon) of 49.8 µM and a TGI (NCI-H226 lung) of 24.5 µM. For the same molecule, the TGI (M14 melanoma) was 30.4 µM, the TGI (NCI-H522 lung) was 24.3 µM and the TGI (OVCAR-4 ovarian) was 26.2 µM. For the same molecule, the TGI (HS 578T breast) was greater than 60.8 µM, the TGI (HCT-116 colon) was greater than 43.1 µM and the TGI (MCF7 breast) was 20.7 µM. The TGI (EKVX NSCLC) was 58.7 µM, the TGI (786-0 renal) was 38.4 µM and the TGI (U251 CNS) was 22 µM. It also gave a TGI (RXF 393 renal) of 30.2 µM, a TGI (LOX IMVI melanoma) of 34.2 µM and a TGI (A549 NSCLC) of 38.8 µM. The TGI (KM12 colon) was 28.1 µM, the TGI (IGROV1 ovarian) was 58.5 µM and the TGI (PC-3 prostate) was 30.3 µM. The TGI (K-562 leukemia) was 32 µM, the TGI (HT29 colon) was 48.4 µM and the TGI (OVCAR-8 ovarian) was greater than 65.1 µM. The TGI (CAKI-1 renal) was 68.4 µM, the TGI (OVCAR-5 ovarian) was 61.1 µM and the TGI (NCI-H460 lung) was 31.8 µM. The TGI (HOP-62 NSCLC) was 37.3 µM, the TGI (SK-OV-3 ovarian) was greater than 100 µM and the TGI (SF-295 CNS) was 62.2 µM. The TGI (HCT-15 colon) was greater than 100 µM, the TGI (SK-MEL-28 melanoma) was 32.2 µM and the TGI (SN12C renal) was 32.3 µM. The TGI (CCRF-CEM leukemia) was greater than 67.8 µM, the TGI (HOP-92 NSCLC) was 46.3 µM and the TGI (OVCAR-3 ovarian) was 32.5 µM. For the same molecule, the TGI (SK-MEL-5 melanoma) was 24.7 µM, the TGI (COLO 205 colon) was 44.2 µM and the TGI (NCI-H23 lung) was 38.5 µM. It also gave a TGI (RPMI-8226 leukemia) of 44.6 µM, a TGI (SF-268 CNS) of 18.9 µM and a TGI (UO-31 renal) greater than 81.2 µM. For the same molecule, the TGI (T-47D breast) was 22.6 µM, the TGI (UACC-62 melanoma) was 28.1 µM and the TGI (HCC-2998 colon) was 16.3 µM. The TGI (MDA-MB-435) was 29.5 µM.
